Measurements: patent US11246873B2, “Directed differentiation of oligodendrocyte precursor cells to a myelinating cell fate” (The Scripps Research Institute, priority 2011, dated 2022)
“Also recorded” adds a separate entry of the source. Like-named read-outs stand apart in the source and are kept apart here.

Legend:
[1] = system: dopamine D2 and D3 receptor; format: cell-based, rat
From the text: Error bars indicate standard deviations of 3 replicate measurements.
OPCs express mAChRs, predominantly subtypes M1, M3, and M5 (F. Ragheb et al., J Neurochem, 77, 1396 (2001)). […] Activation of M1 and M3 mAChRs is coupled to downstream signal transduction events through phospholipase C, which results in increased intracellular calcium concentrations (F. Ragheb et al., J Neurochem, 77, 1396 (2001)) (FIG. 23C). M2 and M4 mAChR activation inhibits adenylatecyclase, leading to decreased intracellular cAMP levels (C. C. Felder, FASEB J, 9, 619 (1995); M. Lopez-Ilasaca et al., Science, 275, 394 (1997)). […] Acetylcholine is a known regulator of OPC proliferation and, as such, muscarinic receptor subtypes represent a reasonable class of therapeutic targets for the modulation of OPC proliferation and differentiation (F. De Angelis et al., Dev Neurobiol, (2011)).

OPCs = experiment: Gene expression profile of treated OPCs (Affymetrix rat genome arrays); format: cell-based; conditions: 6 days
Method: FIG. 15. Gene expression profile of OPCs differentiated to oligodendrocytes by benztropine treatment. […] OPCs from the same passage were also pelleted and frozen. Total RNA was isolated from the cells and gene expression analysis was performed using rat genome arrays from Affymetrix. […] Data are represented as fold change over DMSO treated controls.
(A) Increased expression (fold change) of mature oligodendrocyte genes in compound treated cells as compared to DMSO treated cells. (B) Decreased expression (fold change) of OPC genes in compound treated cells as compared to DMSO treated cells.
Benztropine-induced in vitro differentiation of rodent OPCS was confirmed by evaluating the transcription and translation levels of the oligodendrocyte specific markers MBP and myelin oligodendroglial glycoprotein (MOG) by RT-PCR and Western blot analysis, respectively (FIGS. 7B and 13). Additionally, in vitro OPC differentiation activity was assessed by immunofluorescent analysis using multiple markers specifically expressed in mature oligodendrocytes (including MBP, MOG, 2′,3′-cyclic-nucleotide 3′-phosphodiesterase (CNP), […] (GalC), oligodendrocyte marker O1 (O1) and oligodendrocyte marker O4 (O4)) following six days of compound treatment (FIG. 14).

spinal cord of EAE mice = experiment: Histology of spinal cord sections from EAE mice (LFB, H&E, GST-π, NG2); format: in vivo, mouse; conditions: for LFB (myelin) staining in areas infiltrated by lymphocytes / lymphocyte / immune cell infiltration (H&E): 10 mg/kg, relapse phase
From the text: FIG. 26. […] Spinal cords were isolated from mice representative of the average group scores during the relapse phase of EAE, sectioned and stained with Luxol Fast Blue and H&E (left panel) and Luxol Fast Blue only (right panel). Arrows point to regions of lymphocyte infiltration.

[2] = system: total splenocytes stimulated with CD3; experiment: T-cell activation (CD69, CD25) and proliferation (CFSE) in vitro; format: cell-based, mouse; conditions: versus DMSO
From the text: (A-F) Total splenocytes were isolated from mice and stimulated with CD3 and analyzed by flow cytometry for expression of T-cell activation markers CD69 and CD25 and T-cell proliferation using CFSE. (A) Unstimulated cells. (B) DMSO treated cells. […] The numbers represent percentage gated populations positive for the given marker.
(§1) The primary immunological processes involved in MS and EAE are T-cell mediated and the primary treatment paradigms are based on immunomodulatory drugs (T. Kopadze et al., Arch Neurol, 63, 1572 (2006); J. M. Greer et al., J Immunol, 180, 6402 (2007), M. P. Pender and J. M. Greer, curr Allergy Asthma Rep, 7, 285 (2007)).

splenocytes of EAE mice = conditions: mouse, in vivo, ip, 10 mg/kg
Method: (A-K) EAE was induced in mice by injecting PLP and pertussis toxin. […] Total splenocytes were isolated from the mice, stimulated with PMA and ionomycin, and analyzed for various populations of immune cells and cytokine secretion after 48 hours. Protein transport was blocked in cells used for cytokine analysis using Monoeiosin. […] Error bars indicate standard deviation of the mean within each group of 5 mice.
as §1

[3] = system: splenocytes of normal mice; experiment: Immune cell populations and cytokine production in splenocytes of normal mice; format: in vivo, mouse; conditions: 10 mg/kg i.p., 14 days; for cytokine production (IL2, IL10, TNF, IFN-γ producing CD4+ T-cells) / number of B cells: 10 mg/kg
From the text: Total splenocytes were isolated from the mice, stimulated with PMA and ionomycin and analyzed for various populations of immune cells and cytokine secretion after 48 hrs. Protein transport was blocked in cells used for cytokine analysis using monoeiosin. […] Error bars indicate standard deviation of the mean within each group of 5 mice.
as §1

[4] = T-cell dependent and independent B-cell responses to TNP-KLH, TNP-LPS, TNP-Ficoll (serum IgG, IgM ELISA); format: in vivo, mouse; conditions: 10 mg/kg
Method: Serum was isolated at various time points and IgG and IgM levels were measured by ELISA. […] Error bars represent standard deviations from 3 replicate ELISAs performed on samples from 5 mice in each treatment group.
as §1

[5] = system: C57BL/6 mice fed cuprizone; conditions: for remyelination / myelin staining in the corpus callosum versus vehicle, week 2: 2 weeks after cuprizone withdrawal
From the text: Data is represented in terms of threshold bins on the grey scale (0-50) as described. Error bars represent standard deviations of at least 6 corpus callosum regions.
(B) Images were converted to a 256 shade grey scale. (C) The 256 shades of grey were divided into 5 bins of 50 shades each. Number of objects in the corpus callosum region in each bin were counted using Image-Pro plus.
By administering drugs at the time when a cuprizone-free diet is reintroduced, the efficacy of promyelinating agents can be examined by evaluating the relative kinetics of OPC dependent remyelination (T. Skripuletz et al., Am J Pathol, 172, 1053 (2008)). […] Drug or vehicle treated mice were sacrificed in groups of 5 weekly for 5 weeks, following drug treatment, and remyelination was quantitatively evaluated by staining the corpus callosum regions of harvested brains with LFB (FIG. 9A, B).

[6] = spinal cord sections of EAE mice

For `CN1[C@@H]2CC[C@H]1C[C@@H](OC(c1ccccc1)c1ccccc1)C2` [benztropine], the “effect of quinpirole or haloperidol on benztropine induced differentiation / dopamine D2 and D3 receptor signaling” value [1] was “neither the dopamine receptor antagonist haloperidol, nor the dopamine receptor agonist quinpirole affected; also recorded: no effect”, the “expression of OPC genes and mature oligodendrocyte genes” value (OPCs; versus DMSO) was “Downregulation of OPC specific genes required for proliferation; also recorded: downregulation of OPC genes and an upregulation of mature oligodendrocyte genes” and the “global clustering of gene expression profiles” value (OPCs; benztropine 2.3 uM) was “cluster with those obtained from T3 treated positive control cells; also recorded: clustering of benztropine treated samples with thyroid hormone treated samples”. The “LFB (myelin) staining in areas infiltrated by lymphocytes” value (spinal cord of EAE mice) was “a large number of immune cell infiltrated areas stained positive for LFB”, the “lymphocyte / immune cell infiltration (H&E)” value (spinal cord of EAE mice) was “significant infiltration by H&E reactive immune cells” and the “LFB (myelin) staining in areas infiltrated by lymphocytes” value (spinal cord of EAE mice; listed as Benztropine) was “significantly increased LFB staining”. The “lymphocyte / immune cell infiltration (H&E)” value (spinal cord of EAE mice; listed as Benztropine) was “does not block lymphocyte infiltration”, the “number of GST-π positive mature oligodendrocytes” value (spinal cord of EAE mice; spinal cord of EAE mice, vehicle ~500) was 1100 per field and the “GST-π positive cells versus vehicle” value (spinal cord of EAE mice; [6]) was “increased GST-π positive cells”. The “number of NG2 positive cells versus vehicle” value (spinal cord of EAE mice; [6]) was “did not differ significantly; also recorded: no change”, the “T-cell activation (CD69, CD25)” value [2] was “no effect” and the “T-cell proliferation (CFSE)” value [2] was “no effect”. For the same compound, the “number of total splenocytes, CD4+, CD8+, CD4+/CD44Hi and CD8+/CD44Hi T-cells” value (splenocytes of EAE mice) was “no effect”, the “number of total splenocytes, CD4+, CD8+, CD4+/CD44Hi and CD8+/CD44Hi T-cells” value [3] was “no effect” and the “cytokine production (IL2, IL10, TNF, IFN-γ producing CD4+ T-cells)” value [3] was “no effect on cytokine production”. The “number of B cells” value [3] was “minor but significant decrease”, the “cytokine production (IL2, IL10, TNF, IFN-γ producing CD4+ T-cells)” value ([3]; listed as Benztropine) was “no effect” and the “number of B cells” value ([3]; listed as Benztropine) was “no effect”. For the same compound, the “TNP-Ficoll induced B-cell responses (serum IgM and IgG)” value [4] was “no effect on IgG and IgM production”, the “TNP-KLH induced B-cell responses (serum IgM and IgG)” value [4] was “no effect on IgG and IgM production” and the “TNP-LPS induced B-cell responses (serum IgM and IgG)” value [4] was “no effect on IgG and IgM production”. The “remyelination / myelin staining in the corpus callosum versus vehicle, week 2” value ([5]; 10 mg/kg i.p.) was “significant increase in myelin staining in the corpus callosum”, the “remyelination / myelin staining in the corpus callosum versus vehicle, week 2” value ([5]; 10 mg/kg i.p., listed as benzatropine) was “increased remyelination” and the “increase in myelin staining in the corpus callosum versus vehicle” value ([5]; 10 mg/kg i.p., 2 weeks after drug treatment) was roughly 2 fold. For the same compound, the “myelin staining versus vehicle at later time points” value ([5]; 10 mg/kg i.p., up to 5 weeks) was “significant differences were not observed” and the “toxicity to mature oligodendrocytes” value ([5]; mouse, in vivo) was “not toxic to mature oligodendrocytes”.
